Data: patent publication EP4748844A1, “AZETIDINE COMPOUND AND MEDICAL USE THEREOF” (SHANGHAI INSTITUTE OF MATERIA MEDICA, CHINESE ACADEMY OF …, priority 2023, dated 2025)

Experiments:
[1] = test system: ISG gene expression induced by MSA-2 in human THP1-Blue-ISG cells; assay: Inhibition of MSA-2-induced ISG gene expression in human THP1-Blue-ISG cells (Quanti-Blue, OD650); format: cell-based; details: STING agonist MSA-2 10 µM, incubated for 24 hours
Description: 10 µL of compound diluted with PBS/physiological saline was added to each well of a 96 well cell culture plate. The STING agonist was MSA-2, which was added to the counted cell suspension at a final concentration of 10 µM. For the control group without compounds, 10 µL of PBS/physiological saline containing 2% DMSO was added. 3 replicate wells were set in each group. THP1-Blue-ISG cells were counted and adjusted to a cell concentration of 4× 10^5/mL, and 190 µL of cells containing STING agonist were added to each well for incubation. Therefore, the final volume of each test well was 200 µL, the content of DMSO was 0.1%, and the final concentration of the compound tested was 10/3.3/1.1/0.4/0.13/0.04/0.013/0.004 µM, incubated for 24 hours. In addition, 190 µL of cells without STING agonist and 10 µL of physiological saline containing 2% DMSO were added to the blank group. 3 replicate wells were set in each group.
After 24 hours, 20 µL of culture medium was taken from each well and transferred to a new 96 well plate. 180 µL of chromogenic solution Quanti-Blue was added. The plate was placed in a 37 °C incubator. After 2 hours, the OD650 values were measured.
Result analysis: Inhibition rate (%) = (Con(OD650)−Treated(OD650))/Con(OD650) × 100% [formula]
(§1) The IC50 calculation of inhibitors was implemented using the Graphpad Prism 8 software's calculation method log (inhibitor) vs. response - Variable slope (four parameters), with a constrain interval of 0-100.

[2] = test system: DMXAA induced ISG gene expression in mouse RAW-Lucia cells; assay: Inhibition of DMXAA-induced ISG gene expression in mouse RAW-Lucia cells (QUANTI-Luc); format: cell-based; details: STING agonist DMXAA 50 µM, incubated for 24 hours
Description: 10 µL of compound diluted with PBS/physiological saline was added to each well of a 96 well cell culture plate. The STING agonist was DMXAA, which was added to the counted cell suspension at a final concentration of 50 µM. For the control group without compounds, 10 µL of PBS/physiological saline containing 2% DMSO was added. 3 replicate wells were set in each group. RAW-Lucia cells were counted and adjusted to a cell concentration of 4×10^5/mL, and […] of cells were added to each well for incubation. Therefore, the final volume of each test well was 200 µL, the content of DMSO was 0.1%, and the final concentration of the compound tested was 10/3.3/1.1/0.4/0.13/0.04/0.013/0.004 µM. The final concentration of STING agonist DMXAA was 50 µM. The mixture was incubated for 24 hours. In addition, 200 µL of culture medium was added to the blank group. 3 replicate wells were set in each group.
After 24 hours, 20 µL of culture medium was taken from each well and transferred to a new 96 well plate with photopermeable bottom. 50 µL of the luciferase detection reagent QUANTI-Luc™ was added, and the […] was immediately measured (avoid light).
Result analysis: Inhibition rate (%) = (Con(Lum)−Treated(Lum))/Con(Lum) × 100% [formula]
as §1

| SMILES | IC50 [1] [nM] | IC50 [2] [nM] |
| --- | --- | --- |
| CC1(C)C(=O)N(Cc2ccccc2)c2cc(NC(=O)c3c[nH]c4ccccc34)ccc21 [C, reference compound] | 1540 | 188 |
| CC1(C)C(=O)N(CC2CN(c3cc(F)cc(C(F)(F)F)c3)C2)c2cc(C(=O)Nc3c[nH]c4ccccc34)ccc21 [Example I-17] | 32 | 6.8 |
| CC1(C)C(=O)N(CC2CN(c3ccccc3)C2)c2cc(C(=O)Nc3c[nH]c4ccccc34)ccc21 [Example I-11, N-(1H-indol-3-yl)-3,3-dimethyl-2-oxo-1-((1-phenylazetidin-3-yl)methyl)indolin-6-carboxamide] | 180 | 23 |
| CC1(C)C(=O)N(CCc2ccccc2)c2cc(C(=O)Nc3c[nH]c4ccccc34)ccc21 [Example I-81, N-(1H-indol-3-yl)-3,3-dimethyl-2-oxo-1-phenethylindolin-6-carboxamide] | 237 | 0.42 |
| CC1(C)C(=O)N(CC2CN(c3ccsc3)C2)c2cc(C(=O)Nc3c[nH]c4ccccc34)ccc21 [Example I-20, N-(1H-indol-3-yl)-3,3-dimethyl-2-oxo-1-((1-(thien-3-yl)azetidin-3-yl)methyl)indolin-6-carboxamide] | 296 | 16 |
| O=C(Nc1c[nH]c2ccccc12)c1ccc2c(c1)N(CC1CC1)C(=O)CS2 [Example I-62, 4-(cyclopropylmethyl)-N-(1H-indol-3-yl)-3-oxo-3,4-dihydro-2H-benzo[b][1,4]thiazin-6-carboxamide] | 121 | 38 |
| COc1cccc(N2CC(CN3C(=O)C(C)(C)c4ccc(C(=O)Nc5c[nH]c6ccccc56)cc43)C2)c1 [Example I-15, N-(1H-indol-3-yl)-1-((1-3-methoxyphenylazetidin-3-yl)methyl)-3,3-dimethyl-2-oxoindolin-6-carboxamide] | 132 | 61 |
| O=C(Nc1c[nH]c2ccccc12)c1ccc2c(c1)N(Cc1ccsc1)C(=O)CS2 [Example I-55, N-(1H-indol-3-yl)-3-oxo-4-(thien-3-ylmethyl)-3,4-dihydro-2H-benzothien[b][1,4]thiazin-6-carboxamide] | 56 | 80 |
| CC1(C)C(=O)N(CC2CN(c3cc(Cl)cc(C(F)(F)F)c3)C2)c2cc(C(=O)Nc3c[nH]c4ccccc34)ccc21 [Example I-18] | 56 | 19 |
| CC1(C)C(=O)N(Cc2ccco2)c2cc(C(=O)Nc3c[nH]c4ccccc34)ccc21 [Example I-80, 1-(furan-2-ylmethyl)-N-(1H-indol-3-yl)-3,3-dimethyl-2-oxoindolin-6-carboxamide] | 626 | 24 |
| CC1(C)C(=O)N(CC2CC2)c2cc(C(=O)Nc3c[nH]c4ccccc34)ccc21 [Example I-78, 1-cyclopropylmethyl-N-(1H-indol-3-yl)-3,3-dimethyl-2-oxoindolin-6-carboxamide] | 334 | 7.4 |
